SMILES strings stand for the structures.

Drawing on patent US9765074B2, “Inhibitors of the renal outer medullary potassium channel” (Merck Sharp & Dohme Corp., priority 2013, dated 2017), this text covers IC50 for 21 compounds.

This experiment addresses T1, hROMK (hKir1.1) (Homo sapiens, UniProt P48048).
T1 construct: expressed in transfected cells
T1 sequence (P48048 1-391): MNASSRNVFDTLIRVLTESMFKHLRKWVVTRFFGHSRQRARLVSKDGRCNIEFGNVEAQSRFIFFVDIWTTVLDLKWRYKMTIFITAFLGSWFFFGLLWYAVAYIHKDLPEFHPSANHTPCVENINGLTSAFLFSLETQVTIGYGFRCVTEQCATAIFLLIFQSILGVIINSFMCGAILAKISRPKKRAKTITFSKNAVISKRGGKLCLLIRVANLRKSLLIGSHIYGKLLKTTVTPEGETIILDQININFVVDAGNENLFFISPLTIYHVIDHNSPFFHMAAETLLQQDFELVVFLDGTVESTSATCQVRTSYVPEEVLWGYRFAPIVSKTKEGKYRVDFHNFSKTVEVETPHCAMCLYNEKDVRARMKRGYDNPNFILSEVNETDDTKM
Description: Thallium Flux Assay (ROMK channel functional thallium flux, FLIPR-Tetra). Type of experiment: cell-based. The note with it: HEK293 cells stably expressing hROMK (hKir1.1); 30 min compound incubation. In short, it runs like this: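 HEK293 cells stably expressing hKir1.1, loaded with FluxOR dye for 90 min, then preincubated with compound for 30 min at ambient temperature with 0.3 mM ouabain and probenecid. Stimulated with 3 mM thallium/0.3 mM potassium (final); fluorescence read ~10 min. Normalized to 3 μM reference ROMK inhibitor; IC50 from inhibition of flux.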
Regarding `O=C1C=C(N2C=CC3(CCN(CCc4ccc(-n5cnnn5)nn4)CC3)C2=O)CO1` [Example 249, 1-oxo-2-(5-oxo-2,5-dihydrofuran-3-yl)-8-{2-[6-(1H-tetrazol-1-yl)pyridazin-3-yl]ethyl}-2-aza-8-azoniaspiro[4.5]dec-3-ene], inhibition was half-maximal at 40 nM (IC50).

`CC1=C(N2CCC3(CCN(CCc4cnc(-n5cnnn5)cc4CO)CC3)C2=O)COC1=O` [Example 250, 8-{2-[4-(hydroxymethyl)-6-(1H-tetrazol-1-yl)pyridin-3-yl]ethyl}-2-(4-methyl-5-oxo-2,5-dihydrofuran-3-yl)-1-oxo-2-aza-8-azoniaspiro[4.5]decane]: 80 nM corresponded to half-maximal inhibition (IC50).

In the case of `CC1=C(N2C=CC3(CCN(CCc4cnc(-n5cnnn5)cn4)CC3)C2=O)COC1=O` [Example 251, 2-(4-methyl-5-oxo-2,5-dihydrofuran-3-yl)-1-oxo-8-{2-[5-(1H-tetrazol-1-yl)pyrazin-2-yl]ethyl}-2-aza-8-azoniaspiro[4.5]dec-3-ene], the IC50 (commonly the concentration at which inhibition is half-maximal) was determined as 50 nM. This IC50 is about 1.6-fold lower than that of the compound before.

The compound `CC1=C(N2CCC3(CCN(CCc4ncc(-n5cnnn5)nc4C)CC3)C2=O)COC1=O` [Example 252, 2-(4-methyl-5-oxo-2,5-dihydrofuran-3-yl)-8-{2-[3-methyl-5-(1H-tetrazol-1-yl)pyrazin-2-yl]ethyl}-2,8-diazaspiro[4.5]decan-1-one] registered an IC50 of 10 nM.

`CC1=CN(C2=C(C)C(=O)OC2)C(=O)C12CCN(CCc1ccc(-n3cnnn3)nn1)CC2` [Example 253, 4-methyl-2-(4-methyl-5-oxo-2,5-dihydrofuran-3-yl)-1-oxo-8-{2-[6-(1H-tetrazol-1-yl)pyridazin-3-yl]ethyl}-2-aza-8-azoniaspiro[4.5]dec-3-ene] registered an IC50 of 20 nM.

Compound `COC(=O)c1cc(-n2cnnn2)ncc1CCN1CCC2(CC1)CCN(C1=C(C)C(=O)OC1)C2=O` [Example 254, methyl 5-(2-(2-(4-methyl-5-oxo-2,5-dihydrofuran-3-yl)-1-oxo-2,8-diazaspiro[4.5]decan-8-yl)ethyl)-2-(1H-tetrazol-1-yl)isonicotinate] had a half-inhibitory concentration (IC50) of 30 nM.

As to `CC1=CC2(CCN(CCc3ccc(-n4cnnn4)nn3)CC2)C(=O)N1C1=CC(=O)OC1` [Example 255, 3-methyl-2-(5-oxo-2,5-dihydrofuran-3-yl)-8-{2-[6-(1H-tetrazol-1-yl)pyridazin-3-yl]ethyl}-2,8-diazaspiro[4.5]dec-3-en-1-one], the IC50 was 20 nM.

Compound `CC1=CN(C2=C(C)C(=O)OC2)C(=O)C12CCN(CCc1nnc(-n3cnnn3)cc1C)CC2` [Example 256, 4-methyl-2-(4-methyl-5-oxo-2,5-dihydrofuran-3-yl)-8-{2-[4-methyl-6-(1H-tetrazol-1-yl)pyridazin-3-yl]ethyl}-1-oxo-2-aza-8-azoniaspiro[4.5]dec-3-ene] yielded an IC50 of 30 nM.

For the compound `Cc1nc(-n2cnnn2)cnc1CCN1CCC2(CC1)C[C@H](C)N(C1=CC(=O)OC1)C2=O` [Example 261, (3S)-3-methyl-8-{2-[3-methyl-5-(1H-tetrazol-1-yl)pyrazin-2-yl]ethyl}-2-(5-oxo-2,5-dihydrofuran-3-yl)-2,8-diazaspiro[4.5]decan-1-one], the midpoint of inhibition, the IC50, lay at 3 nM. Against the preceding compound, the IC50 is about 10-fold lower.

The compound `Cc1cc(-n2cnnn2)nnc1CCN1CCC2(CC1)C[C@H](C)N(C1=CC(=O)OC1)C2=O` [Example 262, (3S)-3-methyl-8-{2-[4-methyl-6-(1H-tetrazol-1-yl)pyridazin-3-yl]ethyl}-2-(5-oxo-2,5-dihydrofuran-3-yl)-2,8-diazaspiro[4.5]decan-1-one] had an IC50 of 4 nM.

`CC1=C(N2C=CC3(CCN(CCc4ncc(-n5cnnn5)nc4C)CC3)C2=O)COC1=O` [Example 263, 2-(4-methyl-5-oxo-2,5-dihydrofuran-3-yl)-8-{2-[3-methyl-5-(1H-tetrazol-1-yl)pyrazin-2-yl]ethyl}-1-oxo-2-aza-8-azoniaspiro[4.5]dec-3-ene]: 10 nM corresponded to half-maximal inhibition (IC50).

With `C[C@H]1CC2(CCN(CCc3ccc(-n4cnnn4)nn3)CC2)C(=O)N1C1=CC(=O)OC1` [Example 264, (3S)-3-methyl-2-(5-oxo-2,5-dihydrofuran-3-yl)-8-{2-[6-(1H-tetrazol-1-yl)pyridazin-3-yl]ethyl}-2,8-diazaspiro[4.5]decan-1-one], the IC50 amounted to 3 nM.

Regarding `Cc1nc(-n2cnnn2)cnc1CCN1CCC2(CC1)CCN(C1=CC(=O)OC1)C2=O` [Example 269, 8-{2-[3-methyl-5-(1H-tetrazol-1-yl)pyrazin-2-yl]ethyl}-2-(5-oxo-2,5-dihydrofuran-3-yl)-2,8-diazaspiro[4.5]decan-1-one], inhibition was half-maximal at 20 nM (IC50).

Take `C[C@H]1CC2(CCN(CCc3ncc(-n4cnnn4)nc3C3CC3)CC2)C(=O)N1C1=CC(=O)OC1` [Example 270, (S)-8-(2-(3-cyclopropyl-5-(1H-tetrazol-1-yl)pyrazin-2-yl)ethyl)-3-methyl-2-(5-oxo-2,5-dihydrofuran-3-yl)-2,8-diazaspiro[4.5]decan-1-one]: the concentration for half-maximal inhibition (IC50) came to 10 nM.

As for `CCc1nc(-n2cnnn2)cnc1CCN1CCC2(CC1)C[C@H](C)N(C1=CC(=O)OC1)C2=O` [Example 271, (S)-8-(2-(3-ethyl-5-(1H-tetrazol-1-yl)pyrazin-2-yl)ethyl)-3-methyl-2-(5-oxo-2,5-dihydrofuran-3-yl)-2,8-diazaspiro[4.5]decan-1-one], the IC50 is 5 nM.

Take `CC1=C(N2CCC3(CCN(C[C@H](F)c4cnc(-n5cnnn5)cn4)CC3)C2=O)COC1=O` [Example 276, (S)-8-(2-(5-(1H-Tetrazol-1-yl)pyrazin-2-yl)-2-fluoroethyl)-2-(4-methyl-5-oxo-2,5-dihydrofuran-3-yl)-2,8-diazaspiro[4.5]decan-1-one]: 50 nM corresponded to half-maximal inhibition (IC50).

As to `CC1=C(N2CCC3(CCN(C[C@@H](F)c4cnc(-n5cnnn5)cn4)CC3)C2=O)COC1=O` [Example 277, 8-{(2R)-2-fluoro-2-[5-(1H-tetrazol-1-yl)pyrazin-2-yl]ethyl}-2-(4-methyl-5-oxo-2,5-dihydrofuran-3-yl)-1-oxo-2-aza-8-azoniaspiro[4.5]decane], the IC50 turned out to be 80 nM.

The compound `CC1=C(N2CCC3(CCN(C[C@H](F)c4ccc(-n5cnnn5)nn4)CC3)C2=O)COC1=O` [Example 278, 8-{(2S)-2-fluoro-2-[6-(1H-tetrazol-1-yl)pyridazin-3-yl]ethyl}-2-(4-methyl-5-oxo-2,5-dihydrofuran-3-yl)-1-oxo-2-aza-8-azoniaspiro[4.5]decane] showed an IC50 of 30 nM.

With `CC1=C(N2CCC3(CCN(C[C@H](F)c4ccc(-n5cnnn5)cn4)CC3)C2=O)COC1=O` [Example 279, 8-{(2S)-2-fluoro-2-[5-(1H-tetrazol-1-yl)pyridin-2-yl]ethyl}-2-(4-methyl-5-oxo-2,5-dihydrofuran-3-yl)-1-oxo-2-aza-8-azoniaspiro[4.5]decane], the midpoint of inhibition, the IC50, lay at 20 nM.

In turn, `CC1=C(N2CCC3(CCN(C[C@@H](F)c4ccc(-n5cnnn5)cn4)CC3)C2=O)COC1=O` [Example 280, 8-{(2R)-2-fluoro-2-[5-(1H-tetrazol-1-yl)pyridin-2-yl]ethyl}-2-(4-methyl-5-oxo-2,5-dihydrofuran-3-yl)-1-oxo-2-aza-8-azoniaspiro[4.5]decane] displayed an IC50 of 30 nM. Compared with the last compound, the IC50 is about 1.5-fold higher.

`CO[C@H](CN1CCC2(CC1)CCN(C1=C(C)C(=O)OC1)C2=O)c1cnc(-n2cnnn2)cn1` [Example 281, 8-{(2R)-2-methoxy-2-[5-(1H-tetrazol-1-yl)pyrazin-2-yl]ethyl}-2-(4-methyl-5-oxo-2,5-dihydrofuran-3-yl)-1-oxo-2-aza-8-azoniaspiro[4.5]decane] yielded an IC50 of 140 nM.
